Measurements: publication PMC7395068, “The evolution of strategies to minimise the risk of human drug-induced liver injury (DILI) in drug discovery and development” (Archives of Toxicology, 2020)
Like-named read-outs stand apart in the source and are kept apart here.

Columns and labels:
[1] = cited from earlier work
[2] = tested on: THLE-Null and THLE-3A4 cells; details: In vitro Assay; ref Gustafsson 2014; cited from earlier work
[3] = cited from earlier work; remark: listed apart in the source
[4] = tested on: HepG2 cells; details: cited from earlier work
[5] = tested on: HepG2 C3A spheroid, BSEP, Glu/Gal in HepG2 cells, bioactivation; details: cited from earlier work
[6] = tested on: rBsep; details: cited from earlier work
[7] = tested on: Upcyte human hepatocytes; details: In vitro Assay; ref Tolosa 2019; cited from earlier work
[8] = plasma free fraction; cited from earlier work
[9] = tested on: hLiMTs; assay: Combined HCI (HCS) and cellular ATP 3D assay in hLiMTs; details: for AC50 / minimal effective concentration: Homo sapiens
[10] = read-out: Human plasma Cmax; total plasma Cmax.tot, median of 9 literature references; cited from earlier work
[11] = tested on: hLiMTs; details: cited from earlier work
[12] = tested on: HepG2 cells; details: cited from earlier work; remark: listed apart in the source
[13] = tested on: THLE or HepG2 cells, isolated mitochondria, BSEP; details: cited from earlier work
[14] = ref Chen 2011; cited from earlier work
[15] = tested on: PHH; details: cited from earlier work
[16] = tested on: HepG2 cells; details: cited from earlier work; remark: listed apart in the source
[17] = tested on: PHH spheroids; details: cited from earlier work
[18] = Plasma free fraction (fu) and unbound Cmax (Cmax,u); type: in vitro ADME, human; details: unbound plasma Cmax
Experimental: The prediction of DILI severity was evaluated further using the 3D combined HCI assays using plasma-free fraction. The majority of fu values were obtained from literature, when unavailable in-house prediction was utilised. Unbound plasma Cmax concentrations (Cmax,u) were derived by multiplying total plasma Cmax with the corresponding free fraction (fu) for each compound.

[19] = tested on: HepG2 cells, primary human hepatocytes; details: In vitro Assay; ref Garside 2014; cited from earlier work
[20] = tested on: HepaRG spheroids; assay: Combined HCI (HCS) and cellular ATP 3D assay in HepaRG spheroids; details: for AC50 / minimal effective concentration: Homo sapiens
[21] = tested on: human hepatocytes; details: cited from earlier work
[22] = Microtissue model structural based (HCI), combined HCS and ATP, MEC < 25 × Cmax.tot cut-off
[23] = In vitro Assay, ref Proctor 2017
[24] = In vitro Assay, ref Persson 2013
[25] = Modeled in vitro assays (cytotoxicity, mitochondrial dysfunction, BSEP), ref Aleo et al. 2019

CN(C)CCCN1c2ccccc2Sc2ccc(Cl)cc21 [chlorpromazine, reference compound]
DILI severity category (Chen et al. [2016]) ([1]; LTKB DILIrank category, ref Chen et al. 2016): Less
DILI severity category (Chen 2016) ([1]; human DILI classification, LTKB DILIrank, ref Chen et al. 2016): Less
DILI severity category ([1]; human DILI severity, ref Chen et al.): Less
DILI +VE (5-8), DILI -VE (-4) ([1]; ref Chen 2016): +VE
DILI severity category ([1]; ref Chen 2016): vLess-DILI-Concern
THLE-Null [2]: +VE
Assigned DILI category ([3]; Chen et al. 2016 or literature alignment, ref Chen et al. 2016): 2
In vivo DILI ([3]; […]): +VE
In vivo DILI ([3]; ref Aleo 2019): +VE
In vivo DILI ([3]; ref Dawson 2012): +VE
In vivo DILI ([3]; ref Garside 2014): +VE
In vivo DILI ([3]; ref Gustafsson 2014): +VE
In vivo DILI ([3]; ref O'Brien 2006): +VE
In vivo DILI ([3]; ref Persson 2013): +VE
In vivo DILI ([3]; ref Proctor 2017): +VE
In vivo DILI ([3]; ref Tolosa 2012): +VE
In vivo DILI ([3]; ref Tolosa 2019): +VE
In vivo DILI ([3]; ref Vorrink 2018): +VE
In vivo DILI ([3]; ref Williams 2019): +VE
In vivo DILI ([3]; ref Xu 2008): +VE
Structural based (HCI) ([4]; In vitro Assay, ref O'Brien 2006): +VE
DILI in vitro assay prediction, O'Brien (2006) ([4]; Structural based (HCI), HepG2, ref O'Brien et al. 2006): +VE (lowest HCI endpoint IC50 (or in the absence of dose–response < 100 µM) < 30 × total human plasma exposure levels (Cmax.tot))
Bayesian Machine Learning DILI prediction, Williams (2019) ([5]; Bayesian modeling, ref Williams et al. 2019): +VE
Bayesian Machine Learning ([5]; In vitro Assay, ref Williams 2019): +VE
Inhibition of rBsep cutoff<1& cmax u>.2 ([6]; In vitro Assay, ref Dawson 2012): -VE
Inhibition of rBsep cutoff<3 [6]: +VE
Upcytes multi donor assay 14day data [7]: +VE
fu [8]: 0.050
AC50 ([9]; read-out: ATP endpoint AC50): 3.73 µM
minimal effective concentration ([9]; read-out: ATP endpoint MEC): 2.7 µM
AC50 ([9]; read-out: HCS endpoint AC50): 6.41 µM
minimal effective concentration ([9]; read-out: HCS endpoint MEC): 2.47 µM
DILI prediction hLiMTs (HCS-MEC) [9, 22]: +VE (MEC < 25 × Cmax.tot cut-off)
hLiMTs <25x Avg Cmax ATP ([9]; hLiMTs, ATP endpoint, cut-off <25x Avg Cmax): +ve
hLiMTs <100x Avg Cmaxu ATP ([9]; hLiMTs, ATP endpoint, cut-off <100x Avg Cmaxu): +ve (<100x Avg Cmaxu)
hLiMTs <25x Avg Cmax HCS ([9]; hLiMTs, HCS endpoints, cut-off <25x Avg Cmax): +ve
hLiMTs <100x Avg Cmaxu HCS ([9]; hLiMTs, HCS endpoints, cut-off <100x Avg Cmaxu): +ve (<100x Avg Cmaxu)
hLiMTs <25x Avg Cmax All ([9]; hLiMTs, all endpoints (ATP and HCS), cut-off <25x Avg Cmax): +ve
hLiMTs Cmax max All ([9]; hLiMTs, all endpoints, Cmax max used): +ve
hLiMTs Cmax min All ([9]; hLiMTs, all endpoints, Cmax min used): +ve
hLiMTs <10 uM All ([9]; hLiMTs, all endpoints, cut-off <10 uM): +ve (<10 uM)
hLiMTs <100x Avg Cmaxu All ([9]; hLiMTs, all endpoints, cut-off <100x Avg Cmaxu): +ve (<100x Avg Cmaxu)
Cmax [10]: 941 nM
hLiMTs ATP <100uM [11, 23]: +VE (IC50 threshold of 100 µM)
hLiMTs/100xCmax, Proctor (2017) ([11]; hLiMTs, ATP, IC50 < 100 × Cmax.tot, ref Proctor et al. 2017): +VE (IC50 < 100 × Cmax.tot)
hLiMTs/100uM, Proctor (2017) ([11]; hLiMTs, ATP, IC50 threshold 100 µM, ref Proctor et al. 2017): +VE (IC50 threshold of 100 µM)
Cluser analysis [12, 24]: +VE
Structural based (HCI) [12, 24]: +VE
DILI in vitro assay prediction, Persson (2013) ([12]; Structural based (HCI), HepG2, ref Persson et al. 2013): +VE
Partition Hybrid HRM Score ([13]; In vitro Assay, ref Aleo 2019): +VE
Ro2 Hybrid HRM Score ([13]; In vitro Assay, ref Aleo 2019): +VE
Partition Hybrid HRM Score ≥4, Aleo (2019) [13, 25]: +VE (Partition Hybrid HRM Score ≥4)
Partition Hybrid HRM Score ≥8, Aleo (2019) [13, 25]: -VE
Rule of Two hybrid HRM Score ≥3, Aleo (2019) [13, 25]: +VE (Rule of Two hybrid HRM Score ≥3)
Rule of Two hybrid HRM Score ≥8, Aleo (2019) [13, 25]: -VE
DILI Score (FDA) (1-8) [14]: 2
PHH/100xCmax, Proctor (2017) ([15]; 2D PHH, ATP, IC50 < 100 × Cmax.tot, ref Proctor et al. 2017): +VE (IC50 < 100 × Cmax.tot)
PHH/100uM, Proctor (2017) ([15]; 2D PHH, ATP, IC50 threshold 100 µM, ref Proctor et al. 2017): +VE (IC50 threshold of 100 µM)
PHH ATP <100uM [15, 23]: +VE (IC50 threshold of 100 µM)
Structural based (HCI) ([16]; In vitro Assay, ref Tolosa 2012): +VE
DILI in vitro assay prediction, Tolosa (2012) ([16]; Structural based (HCI), HepG2, ref Tolosa et al. 2012): +VE
hLiMTs ATP <20 x Cmax ([17]; In vitro Assay, ref Vorrink 2018): +VE (IC20 < 20 × Cmax.tot cut-off)
DILI in vitro assay prediction, Vorrink (2018) ([17]; PHH spheroids, ATP, 14 days, IC20 < 20 × Cmax.tot, ref Vorrink et al. 2018): +VE (IC20 < 20 × Cmax.tot cut-off)
Human plasma Cmax,u [18]: 47 nM
Cluster 1-6 +VE Assay [19]: +VE
HepaRG <25x Avg Cmax ATP ([20]; HepaRG, ATP endpoint, cut-off <25x Avg Cmax): +ve
HepaRG <100x Avg Cmaxu ATP ([20]; HepaRG, ATP endpoint, cut-off <100x Avg Cmaxu): +ve (<100x Avg Cmaxu)
HepaRG <25x Avg Cmax HCS ([20]; HepaRG, HCS endpoints, cut-off <25x Avg Cmax): +ve
HepaRG <100x Avg Cmaxu HCS ([20]; HepaRG, HCS endpoints, cut-off <100x Avg Cmaxu): +ve (<100x Avg Cmaxu)
HepaRG <25x Avg Cmax All ([20]; HepaRG, all endpoints (ATP and HCS), cut-off <25x Avg Cmax): +ve
HepaRG Cmax max All ([20]; HepaRG, all endpoints, Cmax max used): +ve
HepaRG Cmax min All ([20]; HepaRG, all endpoints, Cmax min used): +ve
HepaRG <10 uM All ([20]; HepaRG, all endpoints, cut-off <10 uM): +ve (<10 uM)
HepaRG <100x Avg Cmaxu All ([20]; HepaRG, all endpoints, cut-off <100x Avg Cmaxu): +ve (<100x Avg Cmaxu)
AC50 ([20]; HepaRG, read-out: ATP endpoint AC50): 6.33 µM
minimal effective concentration ([20]; HepaRG, read-out: ATP endpoint MEC): 3.45 µM
AC50 ([20]; HepaRG, read-out: HCS endpoint AC50): 8.8 µM
minimal effective concentration ([20]; HepaRG, read-out: HCS endpoint MEC): 1.72 µM
DILI prediction HepaRG spheroids (HCS-MEC) [20, 22]: +VE (MEC < 25 × Cmax.tot cut-off)
Structural based (HCI) ([21]; In vitro Assay, ref Xu 2008): +VE
DILI in vitro assay prediction, Xu (2008) ([21]; Structural based (HCI), human hepatocytes, ref Xu et al. 2008): +VE
